The values below are quoted from earlier work in patent US20020055536A1, “System and method for structure-based drug design that includes accurate prediction of binding free energy” (priority 1996, published 2002).

A word on the Ki: it is the dissociation constant of the complex between target and ligand, obtained from inhibition or displacement. In general, IC50 refers to the concentration that inhibits the measured activity by half.

One series concerns the target T1, HIV-1 protease (Human immunodeficiency virus type 1 group M subtype B, UniProt P04585).
T1 construct: The following HIV-1 protease ligands were tested by the method of the present invention

The target in series [1] is purine nucleoside phosphorylase. As to conditions: for IC50: 1 mM phosphate, Ki or IC50 not distinguished; for Phosphate sensitivity: change of binding constant upon increase of phosphate to 50 mM.

With `CC(C)C(O)c1cnc(C(Cc2ccccc2)CC(O)C(Cc2ccccc2)NC(=O)OC(C)(C)C)[nH]1` [B Boc iPr(S)], the Ki at HIV-1 protease was 2.7 µM.

Regarding `CCCC(=O)c1cnc(C(Cc2ccccc2)CC(O)C(Cc2ccccc2)NC(=O)OC(C)(C)C)[nH]1` (centres unmarked) [A Boc n-Pr], at HIV-1 protease, the Ki is 0.15 µM.

For the compound `CC(C)C(O)c1cnc(C(Cc2ccccc2)CC(O)C(Cc2ccccc2)NC(=O)OC(C)(C)C)[nH]1` [B Boc i-Pr(R)], the Ki on HIV-1 protease is 2.7 µM.

For the compound `Nc1nc2c(ncn2COCCO)c(=O)[nH]1` [acyclovir], in series [1], the IC50 is 200 µM and the Phosphate sensitivity entry is on record as “low (those whose binding constant changes by a factor of 15 or less upon increase of the concentration of phosphate to 50 mM)”.

For the compound `CC(C)C(=O)c1cnc(C(Cc2ccccc2)CC(O)C(Cc2ccccc2)NC(=O)OC(C)(C)C)[nH]1` (centres unmarked) [A Boc i-Pr], the Ki on HIV-1 protease is 0.083 µM.

Turning to `Nc1nc2c(ncn2[C@@H]2O[C@H](COP(=O)(O)OP(=O)(O)O)[C@@H](O)[C@H]2O)c(=O)[nH]1` [GDP], in series [1], the IC50 is 360 µM and the Phosphate sensitivity result is “low (those whose binding constant changes by a factor of 15 or less upon increase of the concentration of phosphate to 50 mM)”.

In the case of `CC(C)(C)OC(=O)NC(Cc1ccccc1)C(O)CC(Cc1ccccc1)c1ncc(C=O)[nH]1` (centres unmarked) [A Boc H], the Ki at HIV-1 protease is 3.5 µM.

Consider `Nc1nc2c(ncn2[C@@H]2O[C@H](COP(=O)(O)O)[C@@H](O)[C@H]2O)c(=O)[nH]1` [GMP], for which, in series [1], the IC50 is 530 µM and the Phosphate sensitivity result was “low (those whose binding constant changes by a factor of 15 or less upon increase of the concentration of phosphate to 50 mM)”.

Take `CCC(=O)c1cnc(C(Cc2ccccc2)CC(O)C(Cc2ccccc2)NC(=O)OC(C)(C)C)[nH]1` (centres unmarked) [A Boc Et]: at HIV-1 protease, the Ki is 0.092 µM.

Take `CC(=O)c1cnc(C(Cc2ccccc2)CC(O)C(Cc2ccccc2)NC(=O)OC(C)(C)C)[nH]1` (centres unmarked) [A Boc Me]: the Ki at HIV-1 protease is 0.37 µM.

Turning to `CC(O)c1cnc(C(Cc2ccccc2)CC(O)C(Cc2ccccc2)NC(=O)OC(C)(C)C)[nH]1` [B Boc Me(S)], at HIV-1 protease, the Ki was 13.3 µM.

Take `Nc1nc2c(ncn2[C@H]2C[C@H](O)[C@@H](COP(=O)(O)O)O2)c(=O)[nH]1` [dGMP]: in series [1], the IC50 was 300 µM and the Phosphate sensitivity result was “low (those whose binding constant changes by a factor of 15 or less upon increase of the concentration of phosphate to 50 mM)”.

Take `Nc1nc2c(ncn2COCCOP(=O)(O)O)c(=O)[nH]1` [acyclovirMP]: in series [1], the IC50 was 6.6 µM and the Phosphate sensitivity result is recorded as “low (those whose binding constant changes by a factor of 15 or less upon increase of the concentration of phosphate to 50 mM)”.

In the case of `C=CC(C)(C)C(=O)c1cnc(C(Cc2ccccc2)CC(O)C(Cc2ccccc2)NC(=O)OC(C)(C)C)[nH]1` (centres unmarked) [A Boc CMe2CHCH2], on HIV-1 protease, the Ki was 0.27 µM.

Turning to `Nc1nc(O)c2ncn(COCCOP(=O)(O)OP(=O)(O)O)c2n1` [acyclovirDP], the Phosphate sensitivity result in series [1] was “high (The highly sensitive molecules are affected in some instances by a factor of 140)”.

In the case of `CC(C)C(NC(=O)C(Cc1ccccc1)CC(O)C(Cc1ccccc1)NC(=O)OC(C)(C)C)c1ncc[nH]1` (centres unmarked) [D CH], the inhibitory constant (Ki) on HIV-1 protease was 0.018 µM.

On to `CC(O)c1cnc(C(Cc2ccccc2)CC(O)C(Cc2ccccc2)NC(=O)OC(C)(C)C)[nH]1` [B Boc Me(R)], for which, at HIV-1 protease, the Ki is 13.3 µM.

Consider `Nc1nc2c(ncn2[C@@H]2O[C@H](COP(=O)(O)OP(=O)(O)OP(=O)(O)O)[C@@H](O)[C@H]2O)c(=O)[nH]1` [GTP], for which, in series [1], the IC50 is 490 µM and the Phosphate sensitivity entry is given as “low (those whose binding constant changes by a factor of 15 or less upon increase of the concentration of phosphate to 50 mM)”.

Consider `CC(C)C(NC(=O)C(Cc1ccccc1)CC(O)C(Cc1ccccc1)NC(=O)OC(C)(C)C)c1nnc[nH]1` (centres unmarked) [D N], for which the Ki at HIV-1 protease is 0.0042 µM.

`Nc1nc2c(ncn2[C@H]2C[C@H](O)[C@@H](COP(=O)(O)OP(=O)(O)OP(=O)(O)O)O2)c(=O)[nH]1` [dGTP]: in series [1], the IC50 is 32 µM and the Phosphate sensitivity result is listed as “high (The highly sensitive molecules are affected in some instances by a factor of 140)”.

`Nc1nc2c(ncn2COCCOP(=O)(O)OP(=O)(O)OP(=O)(O)O)c(=O)[nH]1` [acyclovirTP]: in series [1], the IC50 was 0.31 µM and the Phosphate sensitivity result is given as “high (The highly sensitive molecules are affected in some instances by a factor of 140)”.
